# Measurements as given in BindingDB's records for doi:10.7270/Q2H70D5W (University of Pittsburgh, 2007).
# Target: Gag-Pol polyprotein (Human immunodeficiency virus type 1 group M subtype B (isolate HXB2), UniProt P04585)
# Assay: HIV-1 RT RNase H inhibitor potency, dose response, biochemical, probe assessment (AID 652)
# Settings: pH 8; 23 °C
row,SMILES,IC50
1,"N#Cc1c(N)nc(SCC(=O)NC2CCCCC2)c(C#N)c1-c1ccc(Cl)cc1 [2-[6-amino-4-(4-chlorophenyl)-3,5-dicyanopyridin-2-yl]sulfanyl-N-cyclohexylacetamide]",4.42 µM
2,"CN(c1ccccc1)c1ccc(C=c2s/c(=C(/C#N)C(=O)C(C)(C)C)n(Cc3ccco3)c2=O)cc1 [2-[3-(furan-2-ylmethyl)-5-[[4-(N-methylanilino)phenyl]methylidene]-4-oxo-1,3-thiazolidin-2-ylidene]-4,4-dimethyl-3-oxopentanenitrile]",2.01 µM
3,"O=C1CC(c2ccccc2)Cc2nc(N3CCc4ccccc43)ncc21 (stereo not given) [2-(2,3-dihydroindol-1-yl)-7-phenyl-7,8-dihydro-6H-quinazolin-5-one]",5.87 µM
4,"CC(C)(C)C1=Nn2c(nnc2-c2ccccn2)SC1 [6-tert-butyl-3-(2-pyridinyl)-7H-[1,2,4]triazolo[3,4-b][1,3,4]thiadiazine]",7.22 µM
5,"COc1cc(-c2nnc3sc(-c4cccnc4)nn23)cc(OC)c1OC [6-(3-pyridinyl)-3-(3,4,5-trimethoxyphenyl)-[1,2,4]triazolo[3,4-b][1,3,4]thiadiazole]",> 50 µM
6,"CC(C)CNC(=O)c1c(N)n(N=Cc2ccccn2)c2nc3ccccc3nc12 [2-amino-N-(2-methylpropyl)-1-(2-pyridinylmethylideneamino)-3-pyrrolo[3,2-b]quinoxalinecarboxamide]",9.34 µM
7,"COC(=O)c1ccc2c(c1)N(Cc1nc(-c3ccc(Cl)cc3)oc1C)C(=O)C1CCCN21 (stereo not given) [5-[[2-(4-chlorophenyl)-5-methyl-4-oxazolyl]methyl]-4-oxo-1,2,3,3a-tetrahydropyrrolo[1,2-a]quinoxaline-7-carboxylic acid methyl ester]",2.86 µM
8,"Nc1nnc(CSCc2ccc(F)cc2)s1 [5-[(4-fluorophenyl)methylsulfanylmethyl]-1,3,4-thiadiazol-2-amine]",> 50 µM
9,c1ccc2[nH]c(SN3CCOCC3)nc2c1,12.5 µM
10,"CCC(C)c1ccc2oc(-c3ccc(NC(=O)c4nnc[nH]4)cc3)nc2c1 (stereo not given) [N-[4-(5-sec-butyl-1,3-benzoxazol-2-yl)phenyl]-1H-1,2,4-triazole-3-carboxamide]",6.07 µM
11,"COc1ccccc1N1CSC2=C(C#N)C(c3ccc(SC)cc3)CC(=O)N2C1 (stereo not given) [3-(2-methoxyphenyl)-8-(4-methylsulfanylphenyl)-6-oxidanylidene-2,4,7,8-tetrahydropyrido[2,1-b][1,3,5]thiadiazine-9-carbonitrile]",2.59 µM
12,"CCOc1cc(C2c3c(oc4cc(C)c(Cl)cc4c3=O)C(=O)N2Cc2ccco2)ccc1O (stereo not given) [7-chloranyl-1-(3-ethoxy-4-oxidanyl-phenyl)-2-(furan-2-ylmethyl)-6-methyl-1H-chromeno[2,3-c]pyrrole-3,9-dione]",6.99 µM
13,"COC(=O)c1ccc2c(=O)[nH]c(CN3c4ccccc4CC3C)nc2c1 (stereo not given) [methyl 2-[(2-methyl-2,3-dihydroindol-1-yl)methyl]-4-oxo-1H-quinazoline-7-carboxylate]",13.3 µM
14,"Nc1c(S(=O)(=O)c2cccc(Cl)c2)c2c(n1N=CC1=CC(=O)C(=O)C=C1)Nc1ccccc1N2 [4-[[2-azanyl-3-(3-chlorophenyl)sulfonyl-4,9-dihydropyrrolo[3,2-b]quinoxalin-1-yl]iminomethyl]cyclohexa-3,5-diene-1,2-dione]",0.266 µM
15,"C=CCn1c(N)c(C(=O)NCCC2=CCCCC2)sc1=S [3-allyl-4-amino-N-(2-cyclohex-1-en-1-ylethyl)-2-thioxo-2,3-dihydro-1,3-thiazole-5-carboxamide]",3.82 µM
16,O=C(NC1CCS(=O)(=O)C1)c1c(NC(=O)C2COc3ccccc3O2)sc2c1CCCC2 (stereo not given) [MLS000077500],46.3 µM
17,CN(C)c1cccc(C(=O)Nc2cccc(F)c2)c1 [3-(dimethylamino)-N-(3-fluorophenyl)benzamide],12.2 µM
18,Cc1cc(C)n2c(S)nnc2n1,8.1 µM

row,SMILES,IC50
1,"COCCSc1ccccc1C(=O)Nc1cc(C)on1 [2-(2-methoxyethylsulfanyl)-N-(5-methyl-1,2-oxazol-3-yl)benzamide]",10.8 µM
2,O=C(CCN1C(=O)c2ccccc2C1=O)Nc1ccc(-c2nc3ccccc3o2)cc1 [MLS000051238],5.8 µM
3,"Cc1ccc(-c2cc(C(=O)NC3=NCCS3)c3cc(Br)ccc3n2)o1 [6-bromanyl-N-(4,5-dihydro-1,3-thiazol-2-yl)-2-(5-methylfuran-2-yl)quinoline-4-carboxamide]",0.175 µM
4,"O=C(COc1ccc(Br)cc1)Nc1ccc(-c2nnc(-c3ccco3)o2)cc1 [2-(4-bromanylphenoxy)-N-[4-[5-(furan-2-yl)-1,3,4-oxadiazol-2-yl]phenyl]ethanamide]",6.33 µM
5,"COC(=O)c1ccc2c(c1)N(Cc1nc(-c3cccc(C)c3)oc1C)C(=O)C1CCCN21 (stereo not given) [4-keto-5-[[5-methyl-2-(m-tolyl)oxazol-4-yl]methyl]-1,2,3,3a-tetrahydropyrrolo[1,2-a]quinoxaline-7-carboxylic acid methyl ester]",5.97 µM
6,c1ccc(-n2ncc3c2ncn2nc(-c4ccco4)nc32)cc1 [MLS000041701],8.01 µM
7,Cc1ccccc1OCc1nc(-c2ccc(NC(=O)c3ccc4c(c3)OCO4)cc2)no1 [MLS000047257],4.58 µM
8,"CCOC(=O)N1CCC2=C(C#N)C(=N)C(C#N)(C#N)[C@H](c3ccc(OC(C)C)c(OCC)c3)[C@H]2C1 [(8S,8aR)-6-amino-5,7,7-tricyano-8-(3-ethoxy-4-isopropoxy-phenyl)-1,3,8,8a-tetrahydroisoquinoline-2-carboxylic acid ethyl ester]",21.7 µM
9,COC(=O)c1ccc2c(=O)n(Cc3ccco3)c(SCC(=O)Nc3ccc(C)c(Cl)c3)nc2c1 [2-[[2-(3-chloro-4-methyl-anilino)-2-keto-ethyl]thio]-3-(2-furfuryl)-4-keto-quinazoline-7-carboxylic acid methyl ester],2.79 µM
10,"Cc1cccc(NC(=O)Cn2c(C)c(C#N)c3ccccc32)c1C [2-(3-Cyano-2-methyl-indol-1-yl)-N-(2,3-dimethyl-phenyl)-acetamide]",29 µM
11,"c1ccc2c(c1)ncn2Cc1nnc2sc(-c3ccc4c(c3)OCO4)nn12 [3-(1-benzimidazolylmethyl)-6-(1,3-benzodioxol-5-yl)-[1,2,4]triazolo[3,4-b][1,3,4]thiadiazole]",1.23 µM
12,"CCOC(=O)c1sc(NC(=O)CSc2nnc(-c3ccccc3)[nH]2)c(C#N)c1C [ethyl 4-cyano-3-methyl-5-[[2-[(5-phenyl-1H-1,2,4-triazol-3-yl)sulfanyl]acetyl]amino]thiophene-2-carboxylate]",0.67 µM
13,Cc1cc(C)c2oc(-c3ccc(Cl)c(NC(=O)c4ccc(C#N)cc4F)c3)nc2c1 [MLS000052597],2.73 µM
14,CCCc1nc2ccccc2c(=O)n1N=Cc1ccc(O)c(O)c1,0.767 µM
15,CC(C)Cn1c(SCC(=O)NC(=O)Nc2ccc3c(c2)OCCO3)nc2ccccc2c1=O [MLS000057544],4.47 µM
16,"Cc1ccc(/C=C/C2=Cc3c(sc(NC(=O)CSc4nnc(N)[nH]4)c3C#N)C(C)(C)C2)o1 [2-[(5-azanyl-1H-1,2,4-triazol-3-yl)sulfanyl]-N-[3-cyano-7,7-dimethyl-5-[(E)-2-(5-methylfuran-2-yl)ethenyl]-6H-1-benzothiophen-2-yl]ethanamide]",0.9 µM
17,"COc1ccc2ccccc2c1C1CC(=O)N2CN(C3CCCCC3)CSC2=C1C#N (stereo not given) [3-cyclohexyl-8-(2-methoxynaphthalen-1-yl)-6-oxo-2,4,7,8-tetrahydropyrido[2,1-b][1,3,5]thiadiazine-9-carbonitrile]",3.62 µM
